According to patent publication US7541359B2, “N-heteroarylpiperazinyl ureas as modulators of fatty acid amide hydrolase” (Janssen Pharmaceutica N.V., priority 2005, dated 2009):

Target: T1, Rat FAAH (Rattus norvegicus, UniProt P97612)
T1 construct: expressed in transfected cells; host or cells: SK-N-MC cells, electroporated, G418-selected clones
T1 sequence (P97612 1-579): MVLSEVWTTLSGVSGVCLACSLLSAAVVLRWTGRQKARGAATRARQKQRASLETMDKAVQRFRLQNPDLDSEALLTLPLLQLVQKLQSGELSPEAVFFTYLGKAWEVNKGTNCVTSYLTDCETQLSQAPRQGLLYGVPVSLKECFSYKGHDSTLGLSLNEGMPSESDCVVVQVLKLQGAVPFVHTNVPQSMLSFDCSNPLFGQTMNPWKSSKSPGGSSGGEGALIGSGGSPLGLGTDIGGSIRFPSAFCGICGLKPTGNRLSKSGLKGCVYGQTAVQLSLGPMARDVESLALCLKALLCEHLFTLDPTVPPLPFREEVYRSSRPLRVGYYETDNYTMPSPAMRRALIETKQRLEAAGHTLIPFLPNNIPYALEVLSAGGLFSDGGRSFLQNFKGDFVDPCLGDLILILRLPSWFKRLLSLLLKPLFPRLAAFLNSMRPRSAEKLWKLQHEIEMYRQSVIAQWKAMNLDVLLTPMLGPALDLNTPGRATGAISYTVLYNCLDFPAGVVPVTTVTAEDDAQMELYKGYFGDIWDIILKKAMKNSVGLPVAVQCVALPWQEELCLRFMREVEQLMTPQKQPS
Experiment: Assay Method 3: FAAH assay, homogenate of SK-N-MC cells transfected with rat FAAH
Format: biochemical
Conditions: rat FAAH transfected SK-N-MC cell homogenate; 3H-AEA tracer 80 nM; rt 1 h
Experimental: Assay Method 3 A. Transfection of Cells with Rat FAAH
A 10-cm tissue culture dish with a confluent monolayer of SK-N-MC cells was split 2 days (d) prior to transfection. Using sterile technique, the media was removed and the cells were detached from the dish by the addition of trypsin. One fifth of the cells were then placed onto a new 10-cm dish. Cells were grown in a 37° C. incubator with 5% CO2 in Minimal Essential Media Eagle with 10% Fetal Bovine Serum. After 2 d, cells were approximately 80% confluent. These cells were removed from the dish with trypsin and pelleted in a clinical centrifuge. The pellet was re-suspended in 400 μL complete media and transferred to an electroporation cuvette with a 0.4 cm gap between the electrodes. Supercoiled rat FMH cDNA (1 μg) was added to the cells and mixed. The voltage for the electroporation was set at 0.25 kV, and the capacitance was set at 960 μF. After electroporation, the cells were diluted into complete media (10 mL) and plated onto four 10-cm dishes. Because of the variability in the efficiency of electroporation, four different concentrations of cells were plated. […] After 10 d, dishes were analyzed for surviving colonies of cells. Dishes with well-isolated colonies were used. Cells from individual colonies were isolated and tested.
The assay mixture consisted of 50 μL of the cell homogenate, 10 μL of the test compound, and 40 μL of anandamide [1-^3H-ethanolamine] (^3H-AEA, Perkin-Elmer, 10.3 Ci/mmol), which was added last, for a final tracer concentration of 80 nM. The reaction mixture was incubated at rt for 1 h. During the incubation, 96-well Multiscreen filter plates (catalog number MAFCNOB50: Millipore, Bedford, Mass., USA) were loaded with 25 μL of activated charcoal (Multiscreen column loader, catalog number MACL09625, Millipore) and washed once with 100 μL of MeOH. […] After the 1 h incubation, 60 μL of the reaction mixture were transferred to the charcoal plates, which were then assembled on top of the DYNEX plates using Centrifuge Alignment Frames (catalog number MACF09604, Millipore). The unbound labeled ethanolamine was centrifuged through to the bottom plate (5 min at 2000 rpm), which was preloaded with the scintillant, as described above. The plates were sealed and left at rt for 1 h before counting on a Hewlett Packard TopCount.

Row | SMILES | IC50 [nM]
1 | CC(C)c1ccccc1NC(=O)N1CCN(c2nc(-c3ccccc3)ns2)CC1 [Example 23, 4-(3-Phenyl-[1,2,4]thiadiazol-5-yl)-piperazine-1-carboxylic acid (2-isopropyl-phenyl)-amide] | > 10000
2 | CN(C)c1ccc(NC(=O)N2CCN(c3nc(-c4ccccc4)ns3)CC2)cc1 [Example 26, 4-(3-Phenyl-[1,2,4]thiadiazol-5-yl)-piperazine-1-carboxylic acid (4-dimethylamino-phenyl)-amide] | > 10000
3 | COC(=O)c1ccc(NC(=O)N2CCN(c3nc(-c4ccccc4)ns3)CC2)cc1 [Example 30, 4-{[4-(3-Phenyl-[1,2,4]thiadiazol-5-yl)-piperazine-1-carbonyl]-amino}-benzoic acid methyl ester] | > 10000

Continued, values first:

Row | IC50 [nM] | SMILES
4 | > 10000 | O=C(Nc1ccccc1)N1CCN(c2nc(-c3cccc([N+](=O)[O-])c3)ns2)CC1 [Example 37, 4-[3-(3-Nitro-phenyl)-[1,2,4]thiadiazol-5-yl]-piperazine-1-carboxylic acid phenylamide]
5 | 350 | O=C(Nc1ccccc1)N1CCN(c2nc(-c3ccc(Cl)cc3)ns2)CC1 [Example 20, 4-[3-(4-Chloro-phenyl)-[1,2,4]thiadiazol-5-yl]-piperazine-1-carboxylic acid phenylamide]
6 | 490 | COc1ccc(-c2nsc(N3CCN(C(=O)Nc4ccccc4)CC3)n2)cc1 [Example 19, 4-[3-(4-Methoxy-phenyl)-[1,2,4]thiadiazol-5-yl]-piperazine-1-carboxylic acid phenylamide]
7 | 6 | O=C(Nc1ccccc1F)N1CCN(c2nc(-c3ccccc3)ns2)CC1 [Example 21, 4-(3-Phenyl-[1,2,4]thiadiazol-5-yl)-piperazine-1-carboxylic acid (2-fluoro-phenyl)-amide]
8 | 250 | Cc1ccc(-c2nsc(N3CCN(C(=O)Nc4ccccc4)CC3)n2)cc1 [Example 18, 4-(3-p-Tolyl-[1,2,4]thiadiazol-5-yl)-piperazine-1-carboxylic acid phenylamide]
